# US20260055150A1, “GRAIL-1 PEPTIDE PRODUCTS AND METHODS” (REGENTS OF THE UNIVERSITY OF MICHIGAN, priority 2022, published 2026)
# Where “and” joins values, the source holds several entries; their conditions need not be identical. Identical values can stand only once. Entries after “also recorded” stand apart in the source; their conditions may differ. Where a SMILES comes first, the peptide text is derived from it. Where no end group is shown, it is not given here.
# Columns and labels:
# mutant p53-R175H = assay: Immunoblotting of mutant p53 steady state levels in CpD cells; type: cell-based; details: CpD cells transfected with DDK-tagged p53R175H; peptides 20 mM for 6 h
# Protocol: CpD cells overexpressing mutant p53 were transfected with DDK-tagged p53R175H mutant. Cells were then treated with indicated peptides ([…] for 6 h).
# Consequently, the effect of all thirteen peptides on mutant p53 steady state levels was tested.
# CpD cells = assay: Clonogenic survival of mutant p53 driven CpD cells; details: for differential activity in reducing clonogenic survival of CpD cells: CpD versus CpA; for cytotoxic effect on either cell type: CpA and CpD cells
# Protocol: The effects of different siRNAs (e.g., GRAIL Iso1-1, GRAIL Iso1-2, TP53) on clonogenic survival of different BE (CpA, CpD) and EAC (Flo1, OE19, and OE33) cell lines were determined by normalizing the survival fraction of control siRNA-treated group as 1.
# For this purpose, two BE cell lines were used, CpA (with wild type p53) and CpD (carrying mutant p53). […] In brief, 3000 cells in 100 μl of complete medium were plated per well in a 96-well plate 24 h prior to peptide treatments. Cells were then either treated with vehicle (dH2O) or serial dilutions of peptides. Two days following treatments MTT labelling reagent was added, and cells were allowed to form formazan crystals for 2 h. Following, 100 μl of solubilizing agent (10% SDS in 0.01M HCl) was added per well, and plates were incubated at 37° C. overnight. The optical density (OD) of the solubilized formazan was spectrophotometrically quantified using a plate reader at 570 nm with a reference at 650 nm. Data represent the mean (±standard error, SE) performed in quadruplicate, and percent cell viabilities are plotted in semi-logarithmic scale relative to water treated control.
# [1] = tested on: EAC cells (Flo1, OE19, and OE33); assay: Cell viability (MTT) of EAC cell lines; type: cell-based
# [2] = tested on: chaperone activity (Fluc-DM); assay: Fluc-DM luciferase reporter of cellular chaperone activity; type: cell-based; details: 20 μM peptide, overnight
# Protocol: As Frag J/J^m overexpression locks DNAJA1-Hsp70 complex, whether such interactions inhibit chaperone activity was tested. […] To understand the in vivo effects of the Frag J or different peptides in multiple cell lines including BE/EAC and p53 isogenic lines, cells were first transfected/co-transfected with Fluc-DM±Frag J constructs. Twenty-four hours post-transfection, cells were either subjected to luciferase assay or for peptide treatment studies, cells were treated with 20 μM concentrations of different peptides. After overnight incubation, cell lysates were prepared using lysis buffer provided in the luciferase assay kit in Promega luciferase assay system (cat. E1910) followed by standardized protocol as provided by the manufacturer. […] Such observation was confirmed by an in vitro chaperone activity assay using recombinant purified Hsp40-Hsp70 complex (FIG. 6D). In Fluc-DM study, loss of Fluc-DM levels following Frag J/J^m overexpression (FIG. 6E) was noted as shown using immunoblotting. Such effects were independent of p53 mutation status.
# OE19 = OE19 cells
# DNAJA1 [3] = assay: Peptide pull down assay with recombinant DNAJA1; type: binding; details: NHS activated Sepharose beads, Western blot
# Protocol: Briefly, 1 mg of peptide was dissolved in 1 ml of coupling buffer (0.2 M NaHCO3, 0.5 M NaCl, pH 8.3). Peptides were conjugated to NHS-activated resin by incubating 100 μL NHS bead slurry with 200 μL peptide solution for 2 hours at room temperature (RT). Unbound sites were blocked with quenching buffer (0.5 M ethanolamine, 500 mM NaCl). Resin peptide conjugates were washed once with low pH (0.1 M acetate, 0.5 M NaCl, pH 5) and high pH buffer (0.1 M Tris HCl, pH 8.0) and equilibrated with lysis buffer 50 mM HEPES, 150 mM NaCl, 0.2% NP-40, protease inhibitor cocktail, pH 7.5. Purified HSP40 protein was procured from […] (cat #). Purified protein was diluted in lysis buffer. Approximately 40 nM protein was incubated with peptide coupled to NHS beads and incubated for 2 hours at RT. Unbound proteins were removed by centrifugation and beads were washed with washing buffer (50 mM HEPES, 300 mM NaCl, 0.2% NP-40, pH 7.5). Bound proteins were obtained by boiling beads with 1× Laemmli buffer. […] To confirm, thermal stability assays (TSA) were performed. TSA was carried out using QuantStudio™ 7 Flex Real-Time PCR System. […] The plates were covered with optical foil during the reaction in the thermal cycler. […] The Instrument was programmed in the melt curve mode with ROX reagent detection and Fast speed run. The reporter was selected as Rox and none for quencher. Each melt curve was programmed as follows: 25° C. for 15 sec, followed by increase in temperature at the speed of 0.03° C./s up to 95° C. and finally 95° C. for 15 sec. The raw data was exported to Protein Thermal Shift™ Software (Applied Biosystems) for analysis. Melting temperature was calculated using the melt curve. […] To further test functionality, an in vitro ATPase activity assay was performed using purified Hsp40 and Hsp70 proteins. […] Pep 1 was redesignated “Pep J”.
# mutant p53 and EGFR = assay: Immunoblotting of mutant p53 and EGFR levels in BE/EAC cells; type: cell-based
# mutant p53 = tested on: mutant p53
# Protocol: The effect of Pep J and simvastatin treatment either alone or in combination on wild type and mutant p53 was tested in BE/EAC cells present in ten established PDOs grown in vitro. Scrambled Pep J was used as a negative control. […] Different concentrations of Pep J (10-200 μM) and simvastatin (50-1000 nM) were tested as well as different treatment time periods (24-96 hours).
# Organoid lysates were prepared for immunoblotting similar to FIG. 13G.
# [4] = tested on: patient-derived organoids (PDOs); assay: Growth and survival of patient derived organoids in vitro; type: cell-based, human
# [5] = tested on: OE33, OE 19 and Flo1 esophageal adenocarcinoma (EAC) cells; assay: Radiosensitization clonogenic assay of EAC cells; type: cell-based; details: 20 μM for 24 hours, then 0-8 Gy
# Protocol: OE33, OE 19 and Flo1 esophageal adenocarcinoma (EAC) cells were plated and after overnight incubation treated with 20 μM of Pep J for an additional 24 hours. Following, cells were irradiated with different doses (0, 2, 4, 6, 8 Gy) of radiation. Cells were then incubated for 24 hours prior to plating at a clonal density to perform clonogenic assays.
# DNAJA1 [6] = assay: Thermal stability assay (TSA) with purified DNAJA1; type: binding; details: TAT-less peptides, 0-500 μM
# Protocol: (§1) Briefly, 1 mg of peptide was dissolved in 1 ml of coupling buffer (0.2 M NaHCO3, 0.5 M NaCl, pH 8.3). Peptides were conjugated to NHS-activated resin by incubating 100 μL NHS bead slurry with 200 μL peptide solution for 2 hours at room temperature (RT). Unbound sites were blocked with quenching buffer (0.5 M ethanolamine, 500 mM NaCl). Resin peptide conjugates were washed once with low pH (0.1 M acetate, 0.5 M NaCl, pH 5) and high pH buffer (0.1 M Tris HCl, pH 8.0) and equilibrated with lysis buffer 50 mM HEPES, 150 mM NaCl, 0.2% NP-40, protease inhibitor cocktail, pH 7.5. Purified HSP40 protein was procured from Boston Scientific (cat #). Purified protein was diluted in lysis buffer. Approximately 40 nM protein was incubated with peptide coupled to NHS beads and incubated for 2 hours at RT. Unbound proteins were removed by centrifugation and beads were washed with washing buffer (50 mM HEPES, 300 mM NaCl, 0.2% NP-40, pH 7.5). Bound proteins were obtained by boiling beads with 1× Laemmli buffer. […] To confirm, thermal stability assays (TSA) were performed. TSA was carried out using QuantStudio™ 7 Flex Real-Time PCR System. […] The plates were covered with optical foil during the reaction in the thermal cycler. […] The Instrument was programmed in the melt curve mode with ROX reagent detection and Fast speed run. […] Melting temperature was calculated using the melt curve. […]
# Hsp40-Hsp70 = Hsp40-Hsp70 (Homo sapiens, UniProt P31689); assay: In vitro Hsp40-Hsp70 ATPase (chaperone) activity assay; type: biochemical; details: TAT-less peptides, dose-dependent
# Protocol: as §1
compound,measurement,setting,value
GRKKRRQRRRPQPMCKATPWRE [Pep 4],mutant p53-R175H protein levels,mutant p53-R175H,decrease in mutant p53 levels
GRKKRRQRRRPQPMCKVPPWRQ [Pep 5],differential activity in reducing clonogenic survival of CpD cells,CpD cells,better differential activity
same,IC50,"CpD cells; read-out: IC50, clonogenic survival, CpD cells (mutant p53)",11.2 µM and ~11 µM
same,effect on EAC cell lines,[1],relatively more resistant
same,inhibition of chaperone activity (Fluc-DM),[2],inhibition of chaperone activity; also recorded: capable of inhibiting chaperone activity
same,mutant p53-R175H protein levels,mutant p53-R175H,highly effective; also recorded: decrease in mutant p53 levels
same,IC50,OE19,19.4 µM
"N=C(N)NCCC[C@H](NC(=O)CN)C(=O)N[C@@H](CCCCN)C(=O)N[C@@H](CCCCN)C(=O)N[C@@H](CCCNC(=N)N)C(=O)N[C@@H](CCCNC(=N)N)C(=O)N[C@@H](CCC(N)=O)C(=O)N[C@@H](CCCNC(=N)N)C(=O)N[C@@H](CCCNC(=N)N)C(=O)N[C@@H](CCCNC(=N)N)C(=O)N[C@@H](CCCNC(=N)N)C(=O)N1CCC[C@H]1C(=O)N[C@@H](CCC(N)=O)C(=O)O [Pep 13, GRKKRRQRRRRPQ]",cytotoxic effect on either cell type,CpD cells,least cytotoxic effect
"CKVPPWR [Pep 28, TAT-less Pep 9]",interaction with purified DNAJA1 in peptide pull down,DNAJA1 [3],bound effectively
CC[C@H](C)[C@H](NC(=O)[C@H](CC(=O)O)NC(=O)[C@H](CS)NC(=O)[C@H](CCCCN)NC(=O)[C@H](CS)NC(=O)[C@H](CCSC)NC(=O)[C@@H]1CCCN1C(=O)[C@H](CCC(N)=O)NC(=O)[C@@H]1CCCN1C(=O)[C@H](CCCNC(=N)N)NC(=O)[C@H](CCCNC(=N)N)NC(=O)[C@H](CCCNC(=N)N)NC(=O)[C@H](CCC(N)=O)NC(=O)[C@H](CCCNC(=N)N)NC(=O)[C@H](CCCNC(=N)N)NC(=O)[C@H](CCCCN)NC(=O)[C@H](CCCCN)NC(=O)[C@H](CCCNC(=N)N)NC(=O)CN)C(=O)N[C@@H](CC(C)C)C(=O)N[C@@H](CCCCN)C(=O)N[C@@H](C)C(=O)O [Pep 1] (H-GRKKRRQRRRPQPMCKCDILKA-OH; N-terminus and C-terminus assumed),differential activity in reducing clonogenic survival of CpD cells,CpD cells,better differential activity
same,effect on EAC cell lines,[1],relatively more resistant
same,interaction with purified DNAJA1 in peptide pull down,DNAJA1 [3],showed interactions
same,inhibition of chaperone activity (Fluc-DM),[2],inhibition of chaperone activity; also recorded: capable of inhibiting chaperone activity
same,mutant p53-R175H protein levels,mutant p53-R175H,highly effective; also recorded: decrease in mutant p53 levels
same,impact on p53 and EGFR levels in wild type p53 cells,mutant p53 and EGFR; CpA cells,no major impact
same,EGFR levels,mutant p53 and EGFR; CpD and OE33 cells,reduces
same,mutant p53 levels,mutant p53 and EGFR; CpD and OE33 cells,reduces
same,mutant p53 (nuclear) levels by immunofluorescence,"mutant p53; FFPE fixed and sectioned organoids, 72 h, listed as Pep J",significant reduction
same,reduction in mutant p53 levels,"mutant p53; immunoblotting of whole PDO lysis, 72 hours of treatment",50%
same,misfolded mutant p53 levels in PDOs,mutant p53; within 24 h post treatment,loss of misfolded mutant p53
same,killing of PDOs,[4]; 7 days treatment in vitro,killed PDOs
same,size of organoid growth,[4]; after 72 h of treatment,No major effect
same,radiosensitization,[5],radiosensitized
"PMCKVPPWRQ [Pep 27, TAT-less Pep 5]",interaction with purified DNAJA1 in peptide pull down,DNAJA1 [3],bound effectively
GRKKRRQRRRPQLGIEVDVEDG [Pep 12],cytotoxic effect on either cell type,CpD cells,least cytotoxic effect; also recorded: list effects
GRKKRRQRRRPQCKVPPWR [Pep 9],differential activity in reducing clonogenic survival of CpD cells,CpD cells,better differential activity
same,inhibition of chaperone activity (Fluc-DM),[2],inhibition of chaperone activity; also recorded: capable of inhibiting chaperone activity
same,mutant p53-R175H protein levels,mutant p53-R175H,highly effective; also recorded: decrease in mutant p53 levels
GRKKRRQRRRPQPMCKVPPWR [Pep 7],mutant p53-R175H protein levels,mutant p53-R175H,decrease in mutant p53 levels
"PMCKCDILKA [Pep 26, TAT-less Pep 1; Frag J amino acids 1-10]",interaction with purified DNAJA1 in peptide pull down,DNAJA1 [3],bound effectively
same,thermal stability assay result with DNAJA1,DNAJA1 [6],showed the best result; also recorded: better interactor
same,inhibition of Hsp40-Hsp70 chaperoning (ATPase) activity,Hsp40-Hsp70,best efficacy; also recorded: most effect agent
"LGIEVDVEDG [Pep 29, TAT-less Pep 12; Frag J amino acids 11-20]",interaction with purified DNAJA1 in peptide pull down,DNAJA1 [3],no interaction
GRKKRRQRRRPQCKVPPWRQ [Pep 8],mutant p53-R175H protein levels,mutant p53-R175H,decrease in mutant p53 levels
